Where two headings read alike, the source gives them in different places.
System: Bacillus atrophaeus and Bacillus stearothermophilus
Settings: H2O2 alone (no ultrasound)

With OO [Hydrogen Peroxide, hydrogen peroxide] the “reduction in cell count” value (1 min exposure) was 50.02% and the “reduction in cell count” value (5 min exposure) was 50.12%.

— patent publication US20150314021A1, “STERILIZATION METHOD COMPRISING STERILIZATION FLUID AND ULTRASONICALLY GERERATED CAVITATION MICROBUBBLES” (DEVIS TECHNOLOGIES INC., priority 2012, published 2015)
